From patent US11541121B2, “Phosphorothioate-conjugated peptides and methods of using the same” (CITY OF HOPE, priority 2017, dated 2023)
Where no end group is shown, it is not given here. [ ]: non-standard residue; d: D form. pY = N[C@@H](Cc1ccc(OP(=O)(O)O)cc1)C(=O)O

Key:
[1] = system: IL-6/gp130/STAT3 target genes; assay: RT-PCR of IL-6/gp130/STAT3 acute-phase target genes in IL-6 stimulated HepG2 cells; type: cell-based, human; conditions: 1.0 μM, 24 h upon IL-6 stimulation
Experimental: Human hepatoma cells HepG2 were treated as indicated with 1.0 μM gp130-peptide (i.e., IL6-65 represents phosphorothioate elongated SEQ ID NO:4, IL6-96 represents phosphorothioate elongated SEQ ID NO:8, and IL-63 represents phosphorothioate elongated SEQ ID NO:9) for 24 h upon IL-6 stimulation. mRNA was isolated and target gene expression was assessed by RT-PCR. SD shown; T-test: *) P<0.05, **) P<0.01, ***) P<0.001.
Interleukin-6 (IL-6) signaling feeds intracellular STAT3 activity by binding to the extracellular domain of IL-6Ralpha (gp80) recruiting the signaling co-receptors IL-6Rbeta (gp130). IL-6 engagement to these receptors leads to the phosphorylation of 6 tyrosine residues in the cytoplasmic tail of gp130; 3 of those phospho-tyrosines (pY767, pY905 and pY915) serve as the major docking sites recognized by STAT3s SH2 domain initiating STAT3 intracellular signaling. Applicants disclose these three gp130-peptides modified by phosphorothioated ssDNA extension (FIG. 13) considerably reduce expression of a repertoire of IL-6/gp130/STAT3 target genes orchestrating the acute-phase inflammatory response (FIG. 15) once they undergo cellular internalization (FIG. 14).

pY-STAT3 = pY-STAT3 Western blot in IL-6 stimulated HepG2 cells; type: cell-based, human; conditions: 1.0 μM, 30 min prior to IL-6 stimulation
Experimental: FIG. 16: gp130-peptide treatment of cancer cells inhibits pY-STAT3 activation. Human hepatoma cells HepG2 were treated as indicated with 1.0 μM gp130-peptide peptide (i.e., 2263165 is phosphorothioate elongated SEQ ID NO:4, 1209196 is phosphorothioate elongated SEQ ID NO:8, and 2263163 is phosphorothioate elongated SEQ ID NO:9) for either 30 min prior to IL-6 stimulation. Whole cell lysates were subjected to electrophoretic protein separation and STAT3 activity was assessed by Western blot detecting phospho-tyrosine. Total STAT3 protein staining was included as a loading control.
Human hepatoma cells HepG2 were treated as indicated with 1.0 uM gp130-peptide for either 30 min prior to IL-6 stimulation. Whole cell lysates were subjected to electrophoretic protein separation and STAT3 activity was assessed by Western blot detecting phospho-tyrosine. Total STAT3 protein staining was included as a loading control.

[2] = system: IL-6/gp130 signaling; EGFR signaling; assay: IL-6 versus EGF stimulated signaling in HepG2 cells (STAT3 and MAPK p42/44 Western blot); type: cell-based, human; conditions: 1.0 μM, 30 min prior to IL-6 or EGF stimulation
Experimental: Human hepatoma cells HepG2 were treated as indicated with 1.0 μM gp130-peptide peptide (i.e., 65 is phosphorothioate elongated SEQ ID NO:4, 96 is phosphorothioate elongated SEQ ID NO:8, and 63 is phosphorothioate elongated SEQ ID NO:9) for either 30 min prior to IL-6 or EGF stimulation. Whole cell lysates were subjected to electrophoretic protein separation and STAT3 as well as MAPK (p42/44) activity was assessed by Western blot. Total STAT3 and MAPK (p42/44) protein staining was included as a loading control.

[3] = system: survivin (BIRC5) and BclXL (BCL2L1); assay: RT-PCR of cancer cell survival genes in HepG2 cells; type: cell-based, human; conditions: 1.0 μM, 24 h upon IL-6 stimulation
Experimental: Human hepatoma cells HepG2 were treated as indicated with 1.0 μM gp130-peptide (i.e., IL6-65 represents phosphorothioate elongated SEQ ID NO:4, IL6-96 represents phosphorothioate elongated SEQ ID NO:8, and IL-63 represents phosphorothioate elongated SEQ ID NO:9) for 24 h upon IL-6 stimulation. mRNA was isolated and target gene expression was assessed by RT-PCR. SD shown; T-test: ***) P<0.001.

[4] = system: W76964 (mouse pancreatic cancer cell line) cells; assay: Cell penetration in W76964 cells (flow cytometry); type: cell-based; conditions: 1×10^6 cells, 10 μg, 2 hours at 37° C.
Experimental: FIGS. 29A-29B: Combination treatment of cell-penetrating Gp130-inhibitory peptide (i.e., Gp130 peptide) and c-MYC-inhibitory peptide (i.e., c-MYC binding peptide) (SEQ ID NO:10) suppresses tumor growth in a syngeneic mouse model of pancreatic cancer. FIG. 29A. […] 1×10^6 cells were incubated with 10 μg of PS-GP130- or PS-c-MYC-peptide for 2 hours at 37° C. […] FIG. 29B. W76964 cells were engrafted in C57BL/6 mice to generate tumors. After tumor size reached approximately 80 mm^3, PO-Gp130 or PS-GP130 was mixed with PS-c-MYC-inhibitory peptide (1:1 ratio) to treat mice systemically (i.v.) at 20 μg every other day. Tumor size was measured by a caliber. Tumor volume was calculated (V=(L×W×W)), where V is tumor volume, W is tumor width, L is tumor length. When some tumors start to reach 600 mm^3, all groups of mice were euthanized at the same time using protocols approved by IACUC of City of Hope. N=6 as indicated.
1×10^6 cells were incubated with 10 μg of PS-GP130- or PS-c-MYC-peptide for 2 hours at 37° C. […] W76964 cells were engrafted in C57BL/6 mice to generate tumors (FIG. 29B). […] Tumor size was measured by a caliber. Tumor volume was calculated (V=(L×W×W)), where V is tumor volume, W is tumor width, L is tumor length. […]

Substance	expression of IL-6/gp130/STAT3 target genes of the acute-phase inflammatory response [1]	pY-STAT3 levels / STAT3 activity (pY-STAT3)	specificity: IL-6/gp130 signaling versus EGF/EGFR signaling [2]	expression of survival genes survivin (BIRC5) and BclXL (BCL2L1) [3]	cell penetration, flow cytometry [4]
PS-1209196: phosphorothioate elongated SEQ ID NO:8, gp130 peptide phosphorylated at tyrosine 905, MPKSpYLPQTV (MPKS[pY]LPQTV; also: phosphorothioate elongation)	significantly reduces	inhibitory efficacy	specifically inhibits IL-6/gp130 signaling but not EGFR signaling	significantly reduces	–
PS-2263163: phosphorothioate elongated SEQ ID NO:9, gp130 peptide phosphorylated at tyrosine 915, RQGGpYMPQ (RQGG[pY]MPQ; also: phosphorothioate elongation)	significantly reduces	inhibitory efficacy	specifically inhibits IL-6/gp130 signaling but not EGFR signaling	significantly reduces	–
PS-2263165: phosphorothioate elongated SEQ ID NO:4, gp130 peptide phosphorylated at tyrosine 767, VHSGpYRHQVPS (VHSG[pY]RHQVPS; also: phosphorothioate elongation)	significantly reduces	inhibitory efficacy	specifically inhibits IL-6/gp130 signaling but not EGFR signaling	significantly reduces	–
PS-c-MYC-inhibitory peptide: phosphorothioate-conjugated c-MYC binding peptide SEQ ID NO:10 KNDTHQQDIDDLK (also: phosphorothioate-conjugated)	–	–	–	–	cell penetration
